Read-outs that look alike come from different tables or passages of the source.
Tests used:
MMP-1 = target: T1, MMP-1 (Homo sapiens, UniProt P03956); test: fluorimetric assay of MMP activity; type: biochemical; conditions: synthetic fluorescent peptide substrate Mca-Lys-Pro-Leu-Gly-Leu-Dpa-Ala-Arg-NH2
T1 sequence (P03956 100-469): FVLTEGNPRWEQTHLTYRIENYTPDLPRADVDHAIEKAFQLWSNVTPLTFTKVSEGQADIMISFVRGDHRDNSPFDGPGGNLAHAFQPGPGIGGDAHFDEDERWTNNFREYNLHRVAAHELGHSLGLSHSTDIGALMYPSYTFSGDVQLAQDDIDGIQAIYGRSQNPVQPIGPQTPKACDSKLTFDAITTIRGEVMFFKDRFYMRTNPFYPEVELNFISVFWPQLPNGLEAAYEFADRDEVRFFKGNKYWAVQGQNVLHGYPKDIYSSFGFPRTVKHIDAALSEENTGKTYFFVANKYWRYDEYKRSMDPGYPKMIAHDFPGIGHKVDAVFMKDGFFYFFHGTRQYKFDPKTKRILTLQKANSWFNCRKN

MMP-8 = MMP-8 (Homo sapiens, UniProt P22894); test: fluorimetric assay of MMP activity; type: biochemical; conditions: synthetic fluorescent peptide substrate Mca-Lys-Pro-Leu-Gly-Leu-Dpa-Ala-Arg-NH2
MMP-8, sequence (P22894 101-467): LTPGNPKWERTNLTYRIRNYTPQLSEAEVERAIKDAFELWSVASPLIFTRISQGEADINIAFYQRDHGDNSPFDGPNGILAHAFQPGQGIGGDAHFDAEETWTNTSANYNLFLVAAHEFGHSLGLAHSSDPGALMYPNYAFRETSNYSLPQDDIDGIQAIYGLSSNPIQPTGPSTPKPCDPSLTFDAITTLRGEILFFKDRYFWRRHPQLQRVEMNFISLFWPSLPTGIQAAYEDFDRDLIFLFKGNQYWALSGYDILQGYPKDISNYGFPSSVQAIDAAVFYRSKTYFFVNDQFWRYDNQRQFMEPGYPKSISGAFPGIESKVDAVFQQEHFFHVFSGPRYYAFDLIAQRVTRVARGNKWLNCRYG

MMP-13 = MMP-13 (Homo sapiens, UniProt P45452); test: fluorimetric assay of MMP activity; type: biochemical; conditions: synthetic fluorescent peptide substrate Mca-Lys-Pro-Leu-Gly-Leu-Dpa-Ala-Arg-NH2
MMP-2 = target: T2, MMP-2 (Homo sapiens, UniProt P08253); test: fluorimetric assay of MMP activity; type: biochemical
T2 sequence (P08253 110-660): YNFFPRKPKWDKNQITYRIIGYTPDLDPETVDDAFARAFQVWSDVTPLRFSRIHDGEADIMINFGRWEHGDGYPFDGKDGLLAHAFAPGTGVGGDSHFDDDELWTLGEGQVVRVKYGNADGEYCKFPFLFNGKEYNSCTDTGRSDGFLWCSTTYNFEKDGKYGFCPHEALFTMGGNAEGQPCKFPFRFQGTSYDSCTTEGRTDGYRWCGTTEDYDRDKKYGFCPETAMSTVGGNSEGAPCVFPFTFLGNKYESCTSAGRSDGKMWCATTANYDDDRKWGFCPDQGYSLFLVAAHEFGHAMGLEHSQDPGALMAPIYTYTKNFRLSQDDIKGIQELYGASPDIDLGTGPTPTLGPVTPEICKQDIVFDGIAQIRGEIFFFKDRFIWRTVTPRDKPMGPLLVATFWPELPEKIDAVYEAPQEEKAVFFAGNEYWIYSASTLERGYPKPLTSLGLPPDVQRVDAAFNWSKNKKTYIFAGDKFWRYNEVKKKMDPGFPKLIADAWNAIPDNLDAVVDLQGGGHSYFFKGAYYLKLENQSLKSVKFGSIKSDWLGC

MMP-9 = MMP-9 (Homo sapiens, UniProt P14780); test: fluorimetric assay of MMP activity; type: biochemical; conditions: synthetic fluorescent peptide substrate Mca-Lys-Pro-Leu-Gly-Leu-Dpa-Ala-Arg-NH2
MMP-9, sequence (P14780 94-707): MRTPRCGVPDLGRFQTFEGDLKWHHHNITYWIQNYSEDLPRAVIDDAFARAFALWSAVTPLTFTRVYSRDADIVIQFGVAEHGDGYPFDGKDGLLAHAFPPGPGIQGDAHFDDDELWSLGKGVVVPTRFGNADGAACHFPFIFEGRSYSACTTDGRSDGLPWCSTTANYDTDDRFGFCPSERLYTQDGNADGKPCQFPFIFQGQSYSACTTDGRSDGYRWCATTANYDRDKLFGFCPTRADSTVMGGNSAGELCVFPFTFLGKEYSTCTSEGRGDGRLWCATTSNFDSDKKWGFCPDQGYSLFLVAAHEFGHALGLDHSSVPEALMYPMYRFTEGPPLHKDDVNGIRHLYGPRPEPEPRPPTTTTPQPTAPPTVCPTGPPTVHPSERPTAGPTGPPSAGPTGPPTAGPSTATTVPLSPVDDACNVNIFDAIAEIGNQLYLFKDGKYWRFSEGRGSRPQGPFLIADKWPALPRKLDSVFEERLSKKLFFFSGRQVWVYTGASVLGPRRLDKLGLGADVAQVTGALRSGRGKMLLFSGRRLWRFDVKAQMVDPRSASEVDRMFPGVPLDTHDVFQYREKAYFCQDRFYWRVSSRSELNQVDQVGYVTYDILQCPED

MMP-3 = MMP-3 (Homo sapiens, UniProt P08254); test: fluorimetric assay of MMP activity; type: biochemical; conditions: synthetic fluorescent peptide substrate Mca-Lys-Pro-Leu-Gly-Leu-Dpa-Ala-Arg-NH2
MMP-3, sequence (P08254 100-477): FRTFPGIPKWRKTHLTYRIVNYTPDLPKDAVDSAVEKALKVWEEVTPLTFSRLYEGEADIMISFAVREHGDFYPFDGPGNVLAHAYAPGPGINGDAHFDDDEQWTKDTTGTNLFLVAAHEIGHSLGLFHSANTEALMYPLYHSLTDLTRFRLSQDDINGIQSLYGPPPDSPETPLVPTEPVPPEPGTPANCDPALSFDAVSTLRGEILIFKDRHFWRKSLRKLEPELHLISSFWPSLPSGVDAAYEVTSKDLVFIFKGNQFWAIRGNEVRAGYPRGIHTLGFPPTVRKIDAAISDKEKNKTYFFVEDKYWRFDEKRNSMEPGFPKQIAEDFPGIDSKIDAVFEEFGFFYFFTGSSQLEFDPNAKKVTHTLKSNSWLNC

MMP-7 = target: T3, MMP-7 (Homo sapiens, UniProt P09237); test: fluorimetric assay of MMP activity; type: biochemical; conditions: synthetic fluorescent peptide substrate Mca-Lys-Pro-Leu-Gly-Leu-Dpa-Ala-Arg-NH2
T3 sequence (P09237 95-267): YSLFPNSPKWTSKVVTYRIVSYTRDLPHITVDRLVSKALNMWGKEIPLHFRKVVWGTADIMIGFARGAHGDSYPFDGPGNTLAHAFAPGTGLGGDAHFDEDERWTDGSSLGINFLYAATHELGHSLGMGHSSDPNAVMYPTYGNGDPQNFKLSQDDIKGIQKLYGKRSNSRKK

MMP-12 = MMP-12 (Homo sapiens, UniProt P39900); test: fluorimetric assay of MMP activity; type: biochemical; conditions: synthetic fluorescent peptide substrate Mca-Lys-Pro-Leu-Gly-Leu-Dpa-Ala-Arg-NH2
MMP-12, sequence (P39900 106-470): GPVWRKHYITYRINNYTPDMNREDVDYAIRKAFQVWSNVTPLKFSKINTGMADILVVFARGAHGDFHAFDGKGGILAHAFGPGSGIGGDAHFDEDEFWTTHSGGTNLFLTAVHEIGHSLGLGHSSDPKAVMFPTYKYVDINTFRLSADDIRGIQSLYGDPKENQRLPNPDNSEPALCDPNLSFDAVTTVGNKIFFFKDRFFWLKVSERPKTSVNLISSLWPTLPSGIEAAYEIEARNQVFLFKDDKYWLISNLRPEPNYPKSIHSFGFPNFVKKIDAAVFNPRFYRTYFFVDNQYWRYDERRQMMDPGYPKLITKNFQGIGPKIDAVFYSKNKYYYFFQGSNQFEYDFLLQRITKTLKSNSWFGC

MMP-14 = MMP-14 (Homo sapiens, UniProt P50281); test: fluorimetric assay of MMP activity; type: biochemical; conditions: synthetic fluorescent peptide substrate Mca-Lys-Pro-Leu-Gly-Leu-Dpa-Ala-Arg-NH2
[1] = tested on: MMPs 1, 2, 3, 7, 8, 9, 12, 13 and 14; test: activity against a battery of MMPs (summary in words); type: biochemical, human
[2] = toxicity / tolerability in diabetic rats; type: in vivo; conditions: at elevated levels
Description: The following five experimental groups (n=3 rats per group) were established: Non-diabetic control rats (NDC) treated by daily application of white petrolatum jelly (“vehicle”) for 7 days, diabetic rats (D group) treated daily with vehicle alone; diabetics treated by daily topical application of either a 1% (D+1%) or a 3% (D+3%) suspension of Compound 4 in the vehicle; and diabetics treated systemically by daily oral intubation of a 1 ml suspension of Compound 4 (in carboxymethylcellulose) at a dose of 30 mg/kg over the 7-day treatment protocol (D+30 mg/kg). At the end of this time period, the circular wounds were clinically assessed by measuring diameter of the wound in millimeters, blood samples were collected, the rats were sacrificed, and skin samples collected for histological/histochemical, and biochemical assessment as described below. • 1) On day 7 after inducing wound healing, the animals were anesthetized and blood samples collected for blood glucose (one Touch Ultra Glucometer; Johnson & Johnson, New Brunswick, N.J.) and Hemoglobin A1c (A1c Now+; Bayer Health Care, Sunnyvale, Calif.) measurements. • 2) Photographs were taken for clinical observations to assess wound closure. The % reduction of the wound surface was calculated by measuring the diameter (in millimeters) of each wound before and after the treatment protocol. • 3) Wound tissues on day 7 were excised from 3 sites per rat and pooled for biochemical analysis. […] The supernates were then dialyzed against the Tris-HCl, NaCl, CaCl2 buffer, and the proteinases partially purified by ammonium sulfate precipitation and examined for levels of MMP-2 (72 kD gelatinse) and MMP-9 (92 kD gelatinase) by gelatin zymography using denatured type I collagen (gelatin) as the substrate (6). • 4) The remaining wounds were assessed histologically & histochemically by Dr. Steve McClain (McClain Labs, Smithtown, N.Y.) as follows: Biopsies of each wound site were taken and included both the wound tissue and surrounding non-wounded tissue. […]

collagen in wound tissue = test: collagen fractions (hydroxyproline) in wound tissue of diabetic rats; type: in vivo, rat; conditions: wound tissue day 6
Source text: Biochemical measurements were made on wound tissue 6 days after creating the standardized 6 mm diameter wounds in the various groups of rats including: (1) non-diabetic controls (NDC); (2) Diabetic (DM) rats treated topically with 0.25% curcumin; (3) DM treated with 1% curcumin; (4) DM treated with 0.25% Compound 4, and (5) DM rats treated with 1% Compound 4. The wound tissues from these five different groups were then hydrolyzed (after extraction; see below) to degrade the collagen to individual amino acids, and the amino acid unique to collagen, hydroxyproline, was measured by a commercial colorimetric assay. Prior to hydrolysis, the wound tissues were extracted (at 4° C. to maintain the triple-helical conformation of the collagen molecules) to obtain first the salt-soluble fraction, then the acid-soluble fraction, leaving the insoluble fraction.

[3] = blood glucose of the rats of the collagen experiment; type: in vivo, rat; conditions: diabetic rats
[4] = synthetic fluorescent peptide substrate Mca-Lys-Pro-Leu-Gly-Leu-Dpa-Ala-Arg-NH2, read-out: IC50 MMP-2

IC50 (MMP-1)	IC50 (MMP-8)	IC50 (MMP-13)	IC50 (MMP-2; [4])	IC50 (MMP-9)	IC50 (MMP-3)	IC50 (MMP-7)	IC50 (MMP-12)	IC50 (MMP-14)	IC50 (MMP-2)	Compound	anti-MMP activity (in words) [1]	toxicity [2]	Collagen Fractions (%) Acid-soluble (collagen in wound tissue; 0.25% topical)	Collagen Fractions (%) Insoluble (collagen in wound tissue; 0.25% topical)	Collagen Fractions (%) Salt-soluble (collagen in wound tissue; 0.25% topical)	Collagen Fractions (%) Acid-soluble (collagen in wound tissue; 1% topical)	Collagen Fractions (%) Insoluble (collagen in wound tissue; 1% topical)	Collagen Fractions (%) Salt-soluble (collagen in wound tissue; 1% topical)	Blood Glucose ([3]; 0.25% topical)	Blood Glucose ([3]; 1% topical)
76.3 ± 6.5 µM	20 ± 2 µM	26.7 ± 1.7 µM	23.8 ± 0.9 µM	43.3 ± 4.4 µM	28.3 ± 1 µM	57.5 ± 4.6 µM	5.3 ± 0.3 µM	40 ± 8.4 µM		COC(=O)C(C(=O)/C=C/c1ccc(O)cc1)C(=O)/C=C/c1ccc(O)cc1 [Compound 5, 1,7-Bis(4-hydroxyphenyl)-4-methoxycarbonylhepta-1E,6E-dien-3,5-dione]										
				30 ± 2.9 µM	4.7 ± 0.8 µM	51.8 ± 2.5 µM	2.6 ± 0.2 µM	29.5 ± 3.2 µM	5 ± 0.7 µM	COc1cc(/C=C/C(=O)CC(=O)/C=C/c2ccc(O)c(OC)c2)ccc1O [Compound 1, 1,7-Bis(4-hydroxy-3-methoxyphenyl)hepta-1E,6E-dien-3,5-dione, reference compound]			48.3%	36.4%	15.3%	50.9%	27.1%	22.0%	569 mg/dL	540 mg/dL
74 ± 3.5 µM	30.8 ± 1.5 µM		25.3 ± 1.3 µM	55 ± 17.3 µM	32.5 ± 2.8 µM	48.8 ± 0.5 µM	27.8 ± 1.7 µM	48.5 ± 4.3 µM		COC(=O)C(C(=O)/C=C/c1ccc(O)c(OC)c1)C(=O)/C=C/c1ccc(O)c(OC)c1 [Compound 2, 1,7-Bis(4-hydroxy-3-methoxyphenyl)-4-methoxycarbonylhepta-1E,6E-dien-3,5-dione]										

Second part, the compound before the results:

Compound	IC50 (MMP-1)	IC50 (MMP-8)	IC50 (MMP-13)	IC50 (MMP-2; [4])	IC50 (MMP-9)	IC50 (MMP-3)	IC50 (MMP-7)	IC50 (MMP-12)	IC50 (MMP-14)	IC50 (MMP-2)	anti-MMP activity (in words) [1]	toxicity [2]	Collagen Fractions (%) Acid-soluble (collagen in wound tissue; 0.25% topical)	Collagen Fractions (%) Insoluble (collagen in wound tissue; 0.25% topical)	Collagen Fractions (%) Salt-soluble (collagen in wound tissue; 0.25% topical)	Collagen Fractions (%) Acid-soluble (collagen in wound tissue; 1% topical)	Collagen Fractions (%) Insoluble (collagen in wound tissue; 1% topical)	Collagen Fractions (%) Salt-soluble (collagen in wound tissue; 1% topical)	Blood Glucose ([3]; 0.25% topical)	Blood Glucose ([3]; 1% topical)
COc1cc(/C=C/C(=O)C(C(=O)/C=C/c2ccc(O)c(OC)c2)C(=O)Nc2ccccc2)ccc1O [Compound 3, 1,7-Bis(4-hydroxy-3-methoxyphenyl)-4-N-phenylaminocarbonylhepta-1E, 6E-dien-3,5-dione]	68 ± 3.2 µM	2.5 ± 0.3 µM		6.3 ± 0.9 µM	8.7 ± 0.7 µM	5.3 ± 0.7 µM	21.5 ± 1 µM	4.5 ± 0.5 µM	41.3 ± 4.9 µM		highly active	some toxicity								
c1cnc2c(c1)ccc1cccnc12 [1,10-Phen, 1,10-phenanthroline, reference compound]	42 ± 1.1 µM	31.3 ± 0.5 µM	50 ± 10.4 µM	73.8 ± 1 µM	45 ± 12.6 µM	77 ± 3.2 µM	197 ± 8.8 µM	29.5 ± 1.3 µM	43.8 ± 4.2 µM											
